Reference: patent US20160296536A1, “Administration of Glucocorticoid Steroids to Livestock” (Animal Biotech, LLC, priority 2015, published 2016)

How the values were obtained:
[1] = Example 1: body weight and feed efficiency of piglets treated before weaning; assay type: in vivo; details: for improvement of (average) body weight: gilts (female pigs), intramuscular; for improvement of (average) body weight / higher body weight relative to control animals: P<0.01; for higher body weight than the controls at day 35 of the study: P<0.05; for higher body weight relative to control animals: MET fed orally one week before and 24 hours before weaning
Source text: (§1) In a study, a total of 64 piglets (32 gilts [females] and 32 barrows [castrated males]) with initial body weight (BW) of 4.8±0.7 Kg were assigned to four treatments. Treatments were in a 4×2 factorial arrangement with a completely randomized design with two main factors: (I) control (Con), two levels of cortisol agonist (Dexamethasone; DEX; subdivided into 2 dosage levels: DEXA and DEXB), or cortisol antagonist (Metyrapone; MET), and (II) gender (gilt vs. barrow). See Table at FIG. 9, for a summary of the list of the treatments, drug dosage, and number of the animals per treatment. Dexamethasone was injected intramuscular at dosages shown, while Metyrapone was mixed with applesauce and fed to the animals with a syringe. The study lasted for 5 weeks. It began one week before weaning (14-day old piglets), and continued 4 weeks after the weaning. Pigs were weaned at the age of 21-days. Piglets received the treatments either orally via diet or by intra-muscular injection one week before and again 24 hours before weaning. Blood samples were collected by venipuncture of the jugular vein on day 14, 20, 21, 22, 23, 24, 26, 28, and 35 of age. Serum cortisol was determined using a commercial kit. Feed intake, average daily gain, feed efficiency, and mortality/morbidity was determined. Body weights (body mass) of the animals were measured on a daily basis for a week after weaning, and then on a weekly basis until the end of the study. See, FIGS. 2 and 3.

[2] = Example 2: body mass, daily gain, feed intake and gain-to-feed of weaned gilts; assay type: in vivo, piglets; details: weaned pigs; 0.2 mg/kg intramuscular
Protocol: In this test, eighteen gilts (of commercially relevant genetics) were weaned at 23±2 days of age. These were housed in floor pens (3 pigs per pen), and assigned to 3 treatments: (1) unweaned suckling that received saline but no cortisol agonist (UWS), (2) weaning that received only saline (WS), and (3) weaning that received the cortisol agonist (WC). The piglets of Group (3) received a cortisol agonist (0.2 mg dexamethasone per kg of body mass) via intramuscular injection on the day before commencing weaning, and day 3 post-weaning. Those of Groups (1) and (2) received instead only a saline solution intra-muscular injection at the same time intervals. Body mass (BW) was monitored daily, and average daily mass gain (ADG) and mass of feed intake (ADFI) were measured and/or estimated for the course of the study. […] Data was analyzed using mixed procedures in SAS (PROC MIXED). Repeated measure analysis of variance was used for the parameters that were measured over time.

[3] = Example 1: serum cortisol in piglet blood samples (commercial kit); assay type: in vivo, piglets; details: 24 h after weaning; P>0.05
Source text: as §1, with “Blood samples were collected by venipuncture of the jugular vein on day 14, 20, 21, 22, 23, 24, 26, 28, and 35 of age.” left out, “See, FIGS. 2 and 3.” left out

| Compound | effect on body weight ([1]; barrows, anti-inflammatory dose, P>0.05) | improvement of (average) body weight ([1]; DEXA dose (anti-inflammatory)) | improvement of (average) body weight ([1]; DEXB dose (immunosuppressive)) | improvement of (average) body weight ([1]; DEXB dose (immunosuppressive), listed as dexamethasone) | higher body weight than the controls at day 35 of the study ([1]; gilts, DEXA dose, day 35) | higher body weight than the controls at day 35 of the study ([1]; gilts, DEXB dose, day 35) | effect on ADFI (mass of feed intake) [2] | effect on ADG (average daily mass gain) [2] | increase of average body weight of the piglets ([1]; all piglets, average over the course of the study) | higher body weight relative to control animals ([1]; barrows) | effect on body weight of piglets at day 35 of the study ([1]; day 35) | higher body weight relative to control animals ([1]; gilts) | effect on serum cortisol levels [3] |
| --- | --- | --- | --- | --- | --- | --- | --- | --- | --- | --- | --- | --- | --- |
| C[C@@H]1C[C@H]2[C@@H]3CCC4=CC(=O)C=C[C@]4(C)[C@@]3(F)[C@@H](O)C[C@]2(C)[C@@]1(O)C(=O)CO [Dexamethasone] | no effect | 9.3% | 4.1% | 4.4% | 13% | 12% | no effect | no effect | – | – | – | – | – |
| CC(C)(C(=O)c1cccnc1)c1cccnc1 [MET, Metyrapone] | – | – | – | – | – | – | – | – | 3.4% | 3% | no effect | 4% | Neither MET nor DEX had an effect |
